Earlier results as cited in patent US11077125B2, “Ophthalmic composition containing sulfasalazine and hyaluronic acid” (KUKJE PHARMA CO., LTD., priority 2016, dated 2021).
Converted amounts (≈) assume the structure as drawn.

Conditions: in water

solubility: 46.4 µg/mL (≈ 116 µM)
SMILES: O=C(O)c1cc(/N=N/c2ccc(S(=O)(=O)Nc3ccccn3)cc2)ccc1O [Sulfasalazine]
